This note sets out measurements from patent US20110008302A1, “Compositions and methods for immortalizing cells and screening for anti-cancer agents” (priority 2007, published 2011).

Assay [1] concerns MEFs. Put plainly: Oxidant/antioxidant treatment of MEFs, Ezh2 Western blot. It counts as cell-based, mouse. Particulars: NAC 5 mM, Trolox 1 mM, H2O2 0.5 or 1 mM. How it is done: MEFs were treated with NAC (5 mM), Trolox (1 mM) or H2O2 (0.5 or 1 mM). Nuclear extracts were probed with antibodies specific for Ezh2 and for CREB, levels of which served as loading control.
(§1) TROLOX ((±)-6-Hydroxy-2,5,7,8-tetramethylchromane-2-carboxylic acid, (Sigma, catalog number 238813), NAC (N-Acetyl-L-cysteine, Sigma, catalog number A9165), H2O2 (Sigma, catalog number H-1009) and PD173074 (N-[2-[[4-(Diethylamino)butyl]amino]-6-(3,5-dimethoxyphenyl)pyrido[2,3-d]pyrimidin-7-yl]-N′-(1,1-dimethylethyl) urea, FGFR-1/3 inhibitor, TOCRIS Bioscience, catalog number 3044) were added directly in the culture at the indicated concentrations.
(In general: In western blotting, separated proteins are transferred to a membrane and probed.)

The test system of assay [2] is MEFs. Put plainly: Stimulation of serum-starved MEFs with growth factors or serum (Ezh2, Ndy1, miR-101 levels). Format: cell-based, mouse. Particulars: serum-starved MEFs, 24 hours after stimulation; for Ezh2 expression: 20 ng/ml (serum 10%). The protocol: MEFs were transfected with control siRNA and stimulated with serum (10%) for 1, 4, 12 and 18 hours. (upper) Nuclear extracts were probed with antibody specific for Ezh2 and for CREB, levels of which served as loading control. (lower) Ndy1 and Ezh2 mRNA levels were measured with real time RT-PCR; GAPDH mRNA levels were used as internal control. Data are expressed as mean±SD.
Serum starved MEFs were stimulated with each of FGF-2 (20 ng/ml), IGF-1 (20 ng/ml), PDGF (20 ng/ml), serum (10%), VEGF (20 ng/ml), EGF (20 ng/ml) or TNFα (50 ng/ml). Nuclear extracts were probed with antibody specific for Ezh2 and for CREB, levels of which served as loading control.
Data are expressed as mean±SD.
MEFs transfected with control siRNA were stimulated with FGF-2 for 1, 4, 12 or 18 hours. (upper) Nuclear extracts were probed with antibody specific for Ezh2. CREB levels served as loading control. (middle) Ndy1 and Ezh2 mRNA were measured with real time RT-PCR; GAPDH mRNA levels were used as internal control. Data are expressed as mean±SD. (lower) miR-101 levels were measured with real time RT-PCR; U6 small nuclear RNA levels were used as internal control. Data are expressed as mean±SD.
For stimulation with FGF-2 (Cell signalling, catalog number 8910), IGF-1 (R&D Systems, catalog number 791-MG), PDGF (Cell signalling, catalog number 9909), VEGF (R&D systems, catalog number 493-MV), EGF (R&D systems, catalog number 236-EG), TNFα (Cell Signalling, catalog number 2169), cells were serum starved for 16 hours and growth factors were added at a final concentration of 20 ng/ml each, for 24 hours.
To identify a pathway regulating Ezh2 expression via the Ndy1/miR-101 axis, serum-starved MEFs were stimulated with FGF-2, IGF-1, PDGF, EGF, VEGF, TNFα or serum and were examined for expression of Ezh2, Ndy1 and miR-101 before and 24 hours after stimulation. […] This was confirmed with analyses in which FGF-2 was used to stimulate serum-starved MEFs transfected with a control siRNA or siRNA for Ndy1 (FIG. 36).

The subject of a further assay is Ndy1. Kind of assay: siRNA knock down in MEFs (Western blot, real time PCR of p16Ink4a, p19Arf, Ezh2, miR-101). It counts as cell-based, mouse. Particulars: passage 3 MEFs, knock down of the short form of Ndy1. The protocol:
At a time point four days after transfection cells were analyzed by Western blotting and total mRNA was collected and analyzed by real-time PCR with primers specific for p16^Ink4a and p19^Arf and primers specific for the long and short forms of Ndy1. (n=3)*p<0.05
MEFs overexpressing Ndy1 or Ndy2 and MEFs in which Ndy1 was knocked down with siRNA (1433-[…]-1454, SEQ ID NO: 1), were monitored for senescence by light microscopy and β-galactosidase staining and by cell counting at each passage. Transfection of siRNA was carried out using Lipofectamine 2000 (Invitrogen; Carlsbad, Calif.). Knockdown of Ndy1 was confirmed by Western blotting and real time RTPCR.
For siRNA. MEFs transfected with Ndy1 (1433-[…]-1454; SEQ ID NO: 51) or control siRNA (Dharmacon) were plated at 10^5 cells per 6 cm dish and 3-4 days later were harvested and analyzed (Pfau, R., et al. (2008) Proc Natl Acad Sci USA 105, 1907-12, incorporated herein by reference in its entirety). MEFs were transfected with the help of Lipofectamine 2000 (Invitrogen). To specifically knock down the short form of Ndy1 the following siRNA were used: 5′-[…]-′3 (SEQ ID NO: 52) which specifically targets the exon1 of the v2 isoform of Ndy1 (NM_013910). siRNAs for Ezh2 (a mix of two siRNAs form Applied Biosystems, #AM16708 siID #157427 and #157426) and Bmi-1 (Santa Cruz Biotechnologies, # sc-29815) were used in a final concentration of 80 nM.

The next assay relates to TCCSUP cells. Put plainly: PD173074 treatment of TCCSUP cells (Western blot, real time RT-PCR). Format: cell-based, human. How it is done:
TCCSUP cells were treated with 0.5 μM PD173074 or carrier for 24 hours. (upper) Nuclear and cytoplasmic extracts were probed with antibodies specific for each of Ndy1, Ezh2 and phosphoERK. CREB and ERK levels served as loading controls. (lower) miR-101 levels were measured with real time RT-PCR; U6 small nuclear RNA levels were used as internal control. Data are expressed as mean±SD.
TCCSUP cells were transduced with an HA.Ndy1 overexpression construct or with the empty vector (EV), and were subsequently treated with 0.5 μM PD173074 or carrier for 24 hours. (upper) Nuclear extracts were probed with antibodies specific for each of HA-tag (exogenous Ndy1), Ndy1 (both endogenous and exogenous Ndy1) and Ezh2. CREB levels served as loading control. (lower) miR-101 levels were measured with real time RT-PCR; U6 small nuclear RNA levels were used as internal control. Data are expressed as mean±SD.
as §1
(§2) As a next step, FGF signaling was examined to determine importance for Ezh2 upregulation by Ndy1 in these cells. To address this issue, TCCSUP or WIDR cells, two of the above five cell lines, were treated with PD173074, an inhibitor of both FGFR1 and both FGFR3.
(§3) To examine if ectopic expression of Ndy1 reverses the effects of PD173074, namely miR-101 upregulation and Ezh2 downregulation, TCCSUP or WIDR cells were transduced with a pBabe-based retroviral Ndy1 overexpression construct. Cells transduced with the empty pBabe vector were used as control. The engineered cells were subsequently treated with PD173074. Nuclear lysates from these cells were probed with antibodies specific for each of HA-tag (exogenous Ndy1), Ndy1 (both exogenous and endogenous), Ezh2, and CREB. RNA isolated from the same cells was used to measure miR-101 levels with real time RT-PCR.

A further assay has as its system WIDR cells. Kind of assay: PD173074 treatment of WIDR cells (Western blot, real time RT-PCR). Format: cell-based, human. How it is done: WIDR cell were treated with 0.5 μM PD173074 or carrier for 24 hours. (upper) Nuclear and cytoplasmic extracts were probed with antibodies specific for each of Ndy1, Ezh2 and phosphoERK antibodies. CREB and ERK levels served as loading controls. (lower) miR-101 levels were measured with real time RT-PCR; U6 small nuclear RNA levels were used as internal control. Data are expressed as mean±SD.
WIDR cells were transduced with an HA.Ndy1 overexpression construct or the empty vector (EV), and were subsequently treated with 0.5 μM PD173074 or carrier for 24 hours. (upper) Nuclear extracts were probed with antibodies specific for each of with HA-tag (exogenous Ndy1), Ndy1 (both endogenous and exogenous Ndy1) and Ezh2. CREB levels served as loading controls. (lower) miR-101 levels were measured with real time RT-PCR; U6 small nuclear RNA levels were used as internal controls. Data are expressed as mean±SD.
as §1, §2, §3

[3] abbreviates: TCCSUP cells overexpressing HA.Ndy1, 0.5 μM, 24 hours.
Setting [4] is: WIDR cells overexpressing HA.Ndy1, 0.5 μM, 24 hours.

With `CC(=O)N[C@@H](CS)C(=O)O` [NAC, N-Acetyl-L-cysteine], the Ezh2 protein levels entry with MEFs [1] is “no effect”.
In the case of IGF-1: growth factor, R&D Systems, in the assay with MEFs [2], the “level at which Ezh2 expression is induced” value was “at both the RNA and protein levels”; the Ezh2 expression result is reported as “significantly upregulated”.
For PDGF, in the assay on MEFs [2], the “level at which Ezh2 expression is induced” value was “at both the RNA and protein levels”; the Ezh2 expression entry was “significantly upregulated”.
Consider `Cc1c(C)c2c(c(C)c1O)CCC(C)(C(=O)O)O2` (racemic) [Trolox, (±)-6-Hydroxy-2,5,7,8-tetramethylchromane-2-carboxylic acid], for which the Ezh2 protein levels result with MEFs [1] is on record as “no effect”.
Take VEGF: in the assay with MEFs [2], the “expression of Ndy1” value was “only moderate”, the “level at which Ezh2 expression is induced” value was “primarily at the protein level”, the miR-101 entry is “downregulating” and the Ezh2 expression entry is given as “significantly upregulated”.
For the compound “5′-CCGAGGACGACGACUAUGAUU-′3 [Ndy1 short form siRNA]”, in the assay on Ndy1, the p16Ink4a result is “did not upregulate significantly” and the p19Arf result was “did not upregulate significantly”.
On to `OO` [H2O2], for which, in the assay with MEFs [1], the Ezh2 protein levels entry is on record as “no effect”.
`CCN(CC)CCCCNc1ncc2cc(-c3cc(OC)cc(OC)c3)c(NC(=O)NC(C)(C)C)nc2n1` [PD173074, N-[2-[[4-(Diethylamino)butyl]amino]-6-(3,5-dimethoxyphenyl)pyrido[2,3-d]pyrimidin-7-yl]-N′-(1,1-dimethylethyl) urea]: in the assay on TCCSUP cells (TCCSUP cells), the “FGF signaling (level of ERK1/2 phosphorylation)” value was “blocked”. Besides, in the assay with TCCSUP cells (setting [3]), the “effect on Ezh2” value is reported as “abrogated” and the “effect on miR-101” value was “abrogated”. In the assay on TCCSUP cells (TCCSUP cells, 0.5 μM, 24 hours), the Ezh2 protein level result is reported as “downregulates”, the Ndy1 protein level result is given as “downregulates” and the miR-101 levels result is listed as “upregulates”. In the assay on WIDR cells (WIDR cells), the “FGF signaling (level of ERK1/2 phosphorylation)” value is “blocked”. Moreover, in the assay on WIDR cells (setting [4]), the “effect on Ezh2” value is reported as “abrogated” and the “effect on miR-101” value is “abrogated”. Also, in the assay on WIDR cells (WIDR cells, 0.5 μM, 24 hours), the Ezh2 protein level result is recorded as “downregulates”, the Ndy1 protein level entry was “downregulates” and the miR-101 levels entry is reported as “upregulates”.
